The text below walks through data of US20110165113A1, “POLYMER CONJUGATES OF V681-LIKE PEPTIDES” (Nektar Therapeutics, priority 2008, published 2011).

This series is described as follows: Pharmacokinetics after a single IV dose in rats. The note with it: male, Sprague-Dawley, rat, in vivo, equivalent protein mass of 1.0 mg/kg. The source says: The weight range of the animals was 311-346 grams. All animals were food fasted overnight. […] The predose sample was collected from the JVC.
Following the last collection point, the animals were euthanized.

Square brackets hold non-standard residues; d marks the D form. Peptide text beside a SMILES is read from it.

Usually AUC(0-inf) stands for total exposure, with the tail of the curve extrapolated. One may read the Cmax as the maximum level reached in the sampled fluid or tissue. The term MRT denotes a mean duration of stay, worked out from the concentration-time curve. A word on the clearance: it is a measure of how efficiently the substance is removed, as volume per time. Broadly, the half-life is how long it takes for the measured level to halve. In the case of `CC[C@H](C)[C@H](NC(=O)[C@H](C)NC(=O)[C@H](CCCCN)NC(=O)[C@H](CC(C)C)NC(=O)[C@H](C)NC(=O)[C@@H](NC(=O)[C@H](Cc1c[nH]cn1)NC(=O)[C@H](CC(C)C)NC(=O)[C@@H](NC(=O)[C@@H](NC(=O)[C@H](CCCCN)NC(=O)[C@@H](C)NC(=O)[C@H](C)NC(=O)[C@H](CO)NC(=O)[C@H](CCCCN)NC(=O)[C@H](Cc1ccccc1)NC(=O)[C@@H](NC(=O)[C@H](CCCCN)NC(=O)[C@H](CC(C)C)NC(=O)[C@H](Cc1ccccc1)NC(=O)[C@H](CO)NC(=O)[C@H](CCCCN)NC(=O)[C@H](Cc1c[nH]c2ccccc12)NC(=O)[C@H](CCCCN)NC(C)=O)[C@@H](C)O)[C@@H](C)O)C(C)C)[C@@H](C)O)C(=O)N[C@@H](CO)C(=O)N[C@@H](CO)C(N)=O` [V681 (V13AD)] (Ac-KWKSFLKTFKSA[dA]KTVLHTALKAISS-NH2), the AUC(0-inf) stood at 7210 ± 1430 ng·h/mL, the peak concentration (Cmax) was found to be 16500 ± 9670 ng/mL, the MRT is 19.8 ± 4.8 min and the clearance is 2.37 mL/min/kg. Further, the half-life was 36.6 ± 23.4 min. The Vd (read-out: Vss) turned out to be 0.0477 ± 0.018 L/kg.
